Test results reported in ChEMBL document CHEMBL4396892, “Estrogen signaling: An emanating therapeutic target for breast cancer treatment” (Eur J Med Chem, 2019).
pIC50, pKi: −log10 of the molar value.

Assays:
Steryl-sulfatase [1] = biological target: T1, Steryl-sulfatase (Homo sapiens, UniProt P08842); assay type: cell-based, HEK293
T1 sequence (P08842 whole entry): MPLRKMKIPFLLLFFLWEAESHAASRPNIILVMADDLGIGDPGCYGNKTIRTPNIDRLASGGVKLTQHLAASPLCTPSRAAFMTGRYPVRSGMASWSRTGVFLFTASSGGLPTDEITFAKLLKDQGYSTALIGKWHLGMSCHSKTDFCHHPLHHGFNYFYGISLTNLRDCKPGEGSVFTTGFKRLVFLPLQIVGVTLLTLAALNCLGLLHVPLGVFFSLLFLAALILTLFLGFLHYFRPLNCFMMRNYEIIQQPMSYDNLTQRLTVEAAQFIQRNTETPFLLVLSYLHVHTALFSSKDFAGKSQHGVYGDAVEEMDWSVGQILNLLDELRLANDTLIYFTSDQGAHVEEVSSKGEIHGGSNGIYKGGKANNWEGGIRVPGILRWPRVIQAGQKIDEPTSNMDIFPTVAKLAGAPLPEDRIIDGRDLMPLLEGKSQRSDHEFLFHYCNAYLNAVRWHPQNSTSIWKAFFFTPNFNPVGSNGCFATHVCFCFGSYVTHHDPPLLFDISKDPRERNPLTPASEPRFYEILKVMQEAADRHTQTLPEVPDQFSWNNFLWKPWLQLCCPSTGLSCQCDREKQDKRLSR

Steryl-sulfatase [2] = biological target: T1, Steryl-sulfatase; assay type: cell-based, HEK293; remark: listed apart in the source
Aromatase [3] = biological target: T2, Aromatase (Homo sapiens, UniProt P11511); assay type: microsomes, Placenta, Microsome
T2 sequence (P11511 whole entry): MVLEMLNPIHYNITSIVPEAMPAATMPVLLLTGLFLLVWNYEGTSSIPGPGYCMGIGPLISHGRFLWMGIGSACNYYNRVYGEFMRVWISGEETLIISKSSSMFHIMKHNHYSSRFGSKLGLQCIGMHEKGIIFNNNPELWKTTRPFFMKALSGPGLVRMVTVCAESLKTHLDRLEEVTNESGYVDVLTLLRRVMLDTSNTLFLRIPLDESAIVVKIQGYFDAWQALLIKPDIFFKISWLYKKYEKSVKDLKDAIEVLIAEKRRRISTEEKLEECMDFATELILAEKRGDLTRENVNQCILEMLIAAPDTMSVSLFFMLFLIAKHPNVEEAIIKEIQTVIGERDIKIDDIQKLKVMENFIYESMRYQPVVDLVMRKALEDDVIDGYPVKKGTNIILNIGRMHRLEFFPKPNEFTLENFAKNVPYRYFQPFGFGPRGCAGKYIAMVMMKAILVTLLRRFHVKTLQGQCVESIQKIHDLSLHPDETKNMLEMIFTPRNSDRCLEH

Steryl-sulfatase [4] = biological target: T1, Steryl-sulfatase
Steryl-sulfatase [5] = biological target: T1, Steryl-sulfatase; remark: listed apart in the source
Steryl-sulfatase [6] = biological target: T1, Steryl-sulfatase; assay type: microsomes, Placenta, Microsome
Estrogen receptor beta = Estrogen receptor beta (Homo sapiens, UniProt Q92731); assay type: cell-based, MCF7
Chain of Estrogen receptor beta (Q92731 whole entry): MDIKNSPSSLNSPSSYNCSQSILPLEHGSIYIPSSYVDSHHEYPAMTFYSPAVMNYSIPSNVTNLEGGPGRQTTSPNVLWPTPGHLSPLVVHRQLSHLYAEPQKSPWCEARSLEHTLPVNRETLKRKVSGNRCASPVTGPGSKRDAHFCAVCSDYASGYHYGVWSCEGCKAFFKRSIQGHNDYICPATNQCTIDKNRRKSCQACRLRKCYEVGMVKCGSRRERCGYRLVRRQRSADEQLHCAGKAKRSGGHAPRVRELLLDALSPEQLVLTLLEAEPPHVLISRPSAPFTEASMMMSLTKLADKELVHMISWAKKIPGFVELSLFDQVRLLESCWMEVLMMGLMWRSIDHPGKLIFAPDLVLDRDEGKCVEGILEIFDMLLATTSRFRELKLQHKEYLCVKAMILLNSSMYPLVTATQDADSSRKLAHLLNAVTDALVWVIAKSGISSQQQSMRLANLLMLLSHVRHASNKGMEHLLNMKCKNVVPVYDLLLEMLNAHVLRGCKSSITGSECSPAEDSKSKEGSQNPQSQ

Estrogen receptor [7] = biological target: T3, Estrogen receptor (Homo sapiens, UniProt P03372); assay type: cell-based, MCF7
T3 sequence (P03372 whole entry): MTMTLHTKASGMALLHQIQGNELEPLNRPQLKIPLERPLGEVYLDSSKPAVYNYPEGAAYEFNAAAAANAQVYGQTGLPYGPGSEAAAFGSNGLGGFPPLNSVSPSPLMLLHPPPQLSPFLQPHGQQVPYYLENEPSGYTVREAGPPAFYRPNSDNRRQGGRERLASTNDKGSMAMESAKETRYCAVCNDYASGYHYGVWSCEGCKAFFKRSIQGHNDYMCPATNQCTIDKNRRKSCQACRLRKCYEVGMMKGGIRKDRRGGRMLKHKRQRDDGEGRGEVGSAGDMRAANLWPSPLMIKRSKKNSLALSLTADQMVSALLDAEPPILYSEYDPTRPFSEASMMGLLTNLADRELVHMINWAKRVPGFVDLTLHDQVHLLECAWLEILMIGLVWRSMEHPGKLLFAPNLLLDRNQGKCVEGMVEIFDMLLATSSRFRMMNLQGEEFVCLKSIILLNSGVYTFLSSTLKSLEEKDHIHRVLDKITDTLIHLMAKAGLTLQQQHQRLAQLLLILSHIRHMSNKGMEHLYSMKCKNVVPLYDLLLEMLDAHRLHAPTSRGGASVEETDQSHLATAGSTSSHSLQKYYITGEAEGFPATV

Estrogen receptor [8] = biological target: T3, Estrogen receptor
Aromatase [9] = biological target: T2, Aromatase
Steryl-sulfatase [10] = biological target: T1, Steryl-sulfatase; remark: listed apart in the source
Aromatase [11] = biological target: T2, Aromatase; assay type: microsomes, Placenta, Microsome; remark: listed apart in the source
Estrogen receptor [12] = biological target: T3, Estrogen receptor; remark: listed apart in the source
MCF7 = experiment: cells; assay type: functional, cell-based; details: Homo sapiens, MCF7, 72 h
Estrogen receptor [13] = biological target: T3, Estrogen receptor; remark: listed apart in the source
[14] = biological target: RAF proto-oncogene serine/threonine-protein kinase (Homo sapiens, UniProt P04049); assay type: cell-based, MCF7
Chain of RAF proto-oncogene serine/threonine-protein kinase (P04049 whole entry): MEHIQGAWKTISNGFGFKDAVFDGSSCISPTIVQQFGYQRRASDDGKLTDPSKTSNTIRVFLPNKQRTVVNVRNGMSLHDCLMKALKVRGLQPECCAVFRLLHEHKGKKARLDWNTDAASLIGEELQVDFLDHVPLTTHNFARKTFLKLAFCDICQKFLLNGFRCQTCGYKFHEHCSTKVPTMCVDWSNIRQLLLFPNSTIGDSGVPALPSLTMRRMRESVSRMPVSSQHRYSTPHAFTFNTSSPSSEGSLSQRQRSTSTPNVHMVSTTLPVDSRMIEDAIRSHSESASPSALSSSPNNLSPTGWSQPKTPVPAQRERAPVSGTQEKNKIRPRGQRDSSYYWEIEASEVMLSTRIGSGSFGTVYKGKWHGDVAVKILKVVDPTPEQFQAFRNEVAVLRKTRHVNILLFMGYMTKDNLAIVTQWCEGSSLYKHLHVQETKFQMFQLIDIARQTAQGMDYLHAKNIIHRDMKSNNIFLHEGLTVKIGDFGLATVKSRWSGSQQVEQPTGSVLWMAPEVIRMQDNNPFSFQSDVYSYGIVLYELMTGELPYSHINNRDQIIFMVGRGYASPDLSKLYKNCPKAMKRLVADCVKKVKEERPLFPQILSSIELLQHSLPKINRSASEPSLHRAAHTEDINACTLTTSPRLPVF

[15] = biological target: Receptor tyrosine-protein kinase erbB-2 (Homo sapiens, UniProt P04626)
Chain of Receptor tyrosine-protein kinase erbB-2 (P04626 whole entry): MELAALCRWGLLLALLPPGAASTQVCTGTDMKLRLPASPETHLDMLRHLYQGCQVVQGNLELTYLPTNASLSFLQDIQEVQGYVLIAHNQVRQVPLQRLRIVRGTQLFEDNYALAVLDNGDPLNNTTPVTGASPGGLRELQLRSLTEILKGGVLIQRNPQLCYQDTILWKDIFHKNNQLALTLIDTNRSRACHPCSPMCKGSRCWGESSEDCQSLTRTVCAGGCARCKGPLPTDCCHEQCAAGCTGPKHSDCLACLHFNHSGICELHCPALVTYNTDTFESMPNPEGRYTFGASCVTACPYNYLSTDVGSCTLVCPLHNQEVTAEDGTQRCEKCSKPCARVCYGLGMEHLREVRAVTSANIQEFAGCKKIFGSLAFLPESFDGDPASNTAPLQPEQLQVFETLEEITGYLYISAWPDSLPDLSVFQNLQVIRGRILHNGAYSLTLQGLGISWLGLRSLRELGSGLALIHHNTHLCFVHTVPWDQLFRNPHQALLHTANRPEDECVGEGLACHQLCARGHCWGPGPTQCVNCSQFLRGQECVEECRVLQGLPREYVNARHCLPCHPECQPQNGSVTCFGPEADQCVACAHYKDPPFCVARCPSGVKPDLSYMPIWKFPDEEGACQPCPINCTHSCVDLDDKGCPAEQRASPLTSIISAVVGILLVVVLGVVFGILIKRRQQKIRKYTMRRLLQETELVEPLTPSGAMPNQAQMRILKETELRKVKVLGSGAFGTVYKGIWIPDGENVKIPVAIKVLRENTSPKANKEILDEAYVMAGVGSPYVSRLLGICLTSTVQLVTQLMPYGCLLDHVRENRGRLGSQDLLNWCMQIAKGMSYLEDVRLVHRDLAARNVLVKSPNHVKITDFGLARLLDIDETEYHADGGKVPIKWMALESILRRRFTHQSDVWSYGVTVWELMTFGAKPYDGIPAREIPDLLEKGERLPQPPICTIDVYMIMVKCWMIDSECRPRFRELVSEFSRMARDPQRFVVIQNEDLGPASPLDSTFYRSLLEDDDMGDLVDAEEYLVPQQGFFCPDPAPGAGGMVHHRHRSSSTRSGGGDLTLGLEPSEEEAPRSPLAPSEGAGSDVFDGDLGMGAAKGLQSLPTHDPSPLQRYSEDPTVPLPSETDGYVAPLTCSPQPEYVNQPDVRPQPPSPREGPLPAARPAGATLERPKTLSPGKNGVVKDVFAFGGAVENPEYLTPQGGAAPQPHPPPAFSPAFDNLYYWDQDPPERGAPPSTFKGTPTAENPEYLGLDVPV

Work on CC(C)(C)c1ccc(C[C@]2(O)CC[C@H]3[C@@H]4CC=C5C[C@@H](OS(N)(=O)=O)CC[C@]5(C)[C@H]4CC[C@@]32C)cc1 yielded a pIC50 (Steryl-sulfatase [1]) of 7.34 and a pIC50 (Steryl-sulfatase [2]) of 7.85.
With N#Cc1ccc(N(Cc2ccc(Br)cc2)n2cnnc2)cc1 the pIC50 (Aromatase [3]) was 9.40.
C[C@]12CC[C@@H]3c4ccc(NC(=O)C(F)(F)F)cc4CC[C@H]3[C@@H]1CCC2=O showed a pIC50 (Steryl-sulfatase [4]) of 5.06.
CC(C)(C)c1cc(=O)c2cc(OS(N)(=O)=O)ccc2o1 was tested, and the pIC50 (Steryl-sulfatase [5]) was 10.33.
CC/C(=C(\c1ccc(OCCN(C)C)cc1)c1ccc(OS(N)(=O)=O)cc1)c1ccccc1 gave a pKi (Steryl-sulfatase [4]) of less than 3.30.
For CCCCCCCCCCCCCC(=O)NCc1ccc(OS(N)(=O)=O)cc1, the pIC50 (Steryl-sulfatase [6]) was 7.14.
Compound Cc1c(-c2ccc(O)cc2)nn(-c2ccc(O)cc2)c1-c1ccc(OCCN2CCCCC2)cc1 has a pKi (Estrogen receptor beta) of 5.74.
C/C=C1/[C@H](O)C[C@H]2[C@@H]3CCc4cc(OC)ccc4[C@H]3CC[C@]12C showed a pIC50 (Estrogen receptor [7]) of 5.26.
In the case of CC/C(=C(\c1ccc(O)cc1)c1ccc(OCCNCCCCCCNC(=O)CCC2=[N+]3C(=CC4=CC=C(C)C4[B-]3(F)F)C=C2)cc1)c1ccccc1 (centres undefined), the pIC50 (Estrogen receptor [8]) was 7.52.
For C[C@]12CCC(=O)C=C1C=C(CCc1ccccc1)[C@@H]1[C@@H]2CC[C@]2(C)C(=O)CC[C@@H]12, the pKi (Aromatase [9]) was 6.76.
With O=c1oc2cc(OP(=O)(O)O)ccc2c2c1CCCC2 the pIC50 (Steryl-sulfatase [4]) was 4.42.
With CC/C(=C(/c1ccc(OCCN(C)C)cc1)c1ccc(OS(N)(=O)=O)cc1)c1ccccc1 the pKi (Steryl-sulfatase [4]) was 4.44.
For N#Cc1ccc2sc(C34CC5CC(CC(C5)C3)C4)cc(=O)c2c1, the pIC50 (Steryl-sulfatase [4]) was 6.74.
With COc1c2c(c(O)c3c1C(=O)c1cc(C)c(O)cc1C3=O)-c1c(cc(/C=N/NC(=S)NC3CCCCC3)c(C(=O)O)c1O)CC2 the pIC50 (Steryl-sulfatase [10]) was 6.34 and the pKi (Steryl-sulfatase [10]) was 6.46.
CCCCCCCCCc1cc(=O)c2cc(OS(N)(=O)=O)ccc2o1 gave a pIC50 (Steryl-sulfatase [5]) of 10.05.
COc1ccc2c(c1)C(N)=C(Cc1ccncc1)C2=O gave a pIC50 (Aromatase [11]) of 7.00.
Compound O=c1cc(-c2ccccc2)nc2ccc(-c3ccccc3O)cn12 has a pIC50 (Estrogen receptor [12]) of 3.60.
Work on CC(O)[C@@]12C[C@@H]1C[C@H]1[C@@H]3CCc4cc(O)ccc4[C@H]3CC[C@]12C (some centres undefined) yielded a pIC50 (MCF7) of 5.52.
For N#Cc1ccc(N(Cc2ccc(OS(N)(=O)=O)cc2F)n2cnnc2)cc1, the pIC50 (Steryl-sulfatase [4]) was 8.60.
Compound CCCCCCCCCCCCC(=O)NCCc1ccc(OS(N)(=O)=O)cc1 has a pIC50 (Steryl-sulfatase [4]) of 7.25.
For CO[C@H]1/C=C\C=C(/C)C(=O)NC2=CC(=O)C(NC/C=C/C[C@@H]3C[C@H]4[C@@H]5CCc6cc(O)ccc6[C@H]5CC[C@]4(C)[C@H]3O)=C(C[C@@H](C)C[C@H](OC)[C@H](O)[C@@H](C)/C=C(\C)[C@@H]1OC(N)=O)C2=O (stereo in doubt), the pIC50 (Estrogen receptor [13]) was 7.10, the pIC50 [14] was 5.82 and the pIC50 [15] was 7.00.
Compound CC(C)(C#N)c1cc(CSc2ccc(OS(N)(=O)=O)cc2)cc(Cn2cncn2)c1 has a pIC50 (Estrogen receptor [12]) of 8.46.
In the case of O=[N+]([O-])c1ccc(N(Cc2ccc(Br)cc2)n2cnnc2)cc1, the pIC50 (Aromatase [3]) was 9.92.
In the case of C[C@]12CC[C@@H]3c4ccc(C(F)(F)S(N)(=O)=O)cc4CC[C@H]3[C@@H]1CCC2=O, the pKi (Steryl-sulfatase [4]) was 4.09 to 4.55.
Compound Oc1ccc2c(c1)O[C@@H](c1ccccc1)C[C@@H]2n1ccnc1 has a pIC50 (Aromatase [9]) of 7.39.
